# From US10857128B2, “Methods and compositions for treating inflammatory diseases” (Helmholtz Zentrum München Deutsches Forschungszentrum für …, priority 2017, dated 2020)
# Like-named read-outs stand apart in the source and are kept apart here.
# What was measured:
# [1] = system: costimulatory molecules of LPS-stimulated human dendritic cells; experiment: Costimulatory molecules on LPS-stimulated human monocyte-derived dendritic cells (flow cytometry); type: cell-based; settings: Dendritic cell, 24 h, LPS 0.1 μg/ml, D-amino acid 10 μM, mean ± SD of three experiments, relative to LPS-induced expression
# Experimental: Generation of human monocyte-derived dendritic cells. Peripheral venous blood was obtained from healthy volunteers aged between 20 and 50 years after informed consent. Individuals with allergic disease, acute infection or taking any medication 20 days prior to blood sampling or any history of smoking (personal interview) were excluded prior to blood sampling. All experiments were conducted according to the principles expressed in the Declaration of Helsinki.
# Peripheral blood mononuclear cells (PBMC) were isolated from heparinized whole blood by density gradient centrifugation (2000 rpm, 22° C., 20 min) (Biocoll, Biochrom AG, Berlin, Germany). […] Purity and viability of DCs was assessed by flow cytometry (FIG. 9A-C).
# (§1) Costimulatory molecules on human DCs. The following primary monoclonal antibodies were used: CD83 fluorescein isothiocyanate (FITC); CD1a phycoerythrin (PE); CD86-FITC; CD80-PE; CD14 allophycocyanine (APC); CD40-APC; CD3-peridinin chlorophyll protein (PerCP); HLA-DR-PerCP; mouse immunoglobulins G1 (IgG1) mouse immunoglobulins G1 (IgG1) κ were used as isotype controls using the corresponding fluorochromes (all purchased from BD Biosciences, Heidelberg, Germany). To account for donor dependent variability of DC surface markers, all data were normalized to the expression induced by LPS which was set to 100% after subtraction of background values (FACS Canto, FACS DIVA software, Version 5.0.3, BD Biosciences, Heidelberg, Germany). Murine DC subsets and CD4^+ T cells. Single cell suspensions of splenocytes were obtained by filtering spleens through a 70 μm strainer. Samples were stained with CD3-PB (1:200, Biolegend, San Diego, USA), CD4-APC-H7 (BD, 1:400), CD11c-APC-Cy7 (1:100), Mhc-II-Percp-Cy5 (1:100), CD11b-FITC (1:100), CD80-AF647, CD40-APC (1:100). For intracellular cytokines, total spleen cells were stimulated with anti-CD3 (4 μg/mL, BD Bioscience, Heidelberg, Germany) and anti-CD28 (30 ng/mL, BD Bioscience, Heidelberg, Germany) for 16 h. 1×10^6 of total lung cells were stimulated for 16 h with MACSiBead particles coated with anti-CD3 and anti-CD28 using the T cell activation/expansion kit (Miltenyi Biotec, Bergisch Gladbach, Germany) in TexMACS medium (Miltenyi Biotec) according to the manufactures recommendations. Prior to staining, cells were treated with monensin (0.7 μL/mL, BD Golgi Stop, BD Bioscience, Heidelberg, Germany) for 6 h at 37° C. and intracellularly stained for II-4-PE (1:100, eBioscience, Vienna, Austria according to the manufacturer's protocols. Intracellular staining for Foxp3 was performed by using the Foxp3/Transcription Factor Staining buffer set (eBiosciences, Vienna, Austria) according to the manufacturer's recommendations.
# Bioassays for screening for immune modulatory activity in probiotic supernatants. Two biological assays based on down-modulation of costimulatory molecules on human DCs, and of CCL17-secretion by a human Hodgkin lymphoma T cell line (KM-H2) were set up. Human immature DCs were matured with 0.1 μg/mL lipopolysaccharide (LPS) from E. coli (Sigma-Aldrich, St. Louis, USA) in the presence or absence of 200 μL bacteria free supernatants for 24 h followed by flow cytometric analysis of costimulatory molecules.
# [2] = system: allergic airway inflammation; experiment: Ovalbumin-induced allergic airway inflammation (AAI) in mice with oral D-tryptophan; type: in vivo, Balb/c mice
# Experimental: Isolation of intestinal lamina propria cells. Total colons were excised from mice, removed from mesenteries, opened longitudinally and cut into 2 cm long pieces that were incubated for 30 min in 30 mM EDTA in PBS on ice and then shaken vigorously with PBS to remove epithelial cells. After further cutting into small pieces with sharp scissors these were digested at 37° C. in RMPI supplemented with 1 mg/mL collagenase D (Roche Diagnostics, Mannheim, Germany) and 10 mg/ml DNAse I (Sigma-Aldrich, St. Louis, USA). Cells were separated by a 40/80% (w/v) Percoll (GE Healthcare, Chalfont St. Giles, UK) density centrifugation step and washed prior to staining for flow cytometry analysis.
# as §1
# Assessment of cytokines by cytometric bead array. Levels of II4, II5 and II13 were analysed in BALF and cell culture supernatants using an enhanced cytometric bead array (eCBA, Fex Set Kits, BD Biosciences, Franklin Lakes, N.J., USA) according to the manufacturer's guidelines.
# Murine regulatory T cells. Cells were preincubated with Fc-Block (BD Bioscience, Heidelberg, Germany) for 5 min and stained for 20 min with the following antibodies: FITC-conjugated anti-CD3, Alexa-Fluor700-conjugated anti-CD4 and APC-eFluor780-conjugated CD45.2. For intracellular staining, cells were fixed and permeabilized with a commercially available fixation/permeabilization buffer (eBioscience, Vienna, Austria). LIVE/DEAD fixable Aqua dead stain kit (Invitrogen, Carlsbad, USA) was used prior to fixation. Intracellular staining was performed with PerCP-Cy5.5-conjugated anti-Foxp3 and Helios. Gates were set on live CD45^+CD3^+CD4^+ T cells. All antibodies were from eBioscience (Vienna, Austria). Cells were analyzed with a flow cytometer (Fortessa and LSRII, BD Bioscience, Heidelberg, Germany) and analyzed with Flowjo software (Flowjo LLC, Ashland, USA).
# Induction of allergic airway inflammation. […]
# [3] = AAI mice, 50 mM in drinking water
structure (smiles),measurement,setting,value
N[C@H](Cc1c[nH]c2ccccc12)C(=O)O [D-tryptophan],activity at 10 µM,[1]; read-out: Percentage of CD40 expressing mature DCs,15.2 ± 6.5%
same,activity at 10 µM,[1]; read-out: Percentage of CD80 expressing mature DCs,12.1 ± 1.7%
same,activity at 10 µM,[1]; read-out: Percentage of CD83 expressing mature DCs,7.6 ± 3.3%
same,activity at 10 µM,[1]; read-out: Percentage of CD86 expressing mature DCs,24.1 ± 2.7%
same,activity at 10 µM,[1]; read-out: Percentage of HLA-DR expressing mature DCs,88.9 ± 3%
same,Helios+ Treg (lung),[2]; [3],significantly increased
same,II-4 producing T cells (lung),[2]; [3],reduced
same,Ifn-g-producing Th1 cells (lung),[2]; [3],not
same,airway hyperreactivity to methacholine,[2]; [3],improved
same,eosinophils in BALF,[2]; [3],reduction
same,total Foxp3+ cells (lung),[2]; [3],remained unchanged
same,total BALF cells,"[2]; AAI mice, 50 mM in drinking water from 3 days before sensitization",lowered
same,II-4 levels in BALF,"[2]; AAI mice, 50 mM in drinking water, (trend)",reduced
same,frequency of Foxp3+ T cells in the colon,[2]; supplemented AAI mice compared to non-supplemented AAI mice,locally increased
